Assay results taken from patent US20100267697A1, “ION CHANNEL MODULATORS” (Wyeth, priority 2006, published 2010).
Structures can show the parent of a compound that is named as a salt. Where two headings read alike, the source gives them in different places.

Target: T1, Cav2.2 (Homo sapiens, UniProt Q00975)
T1 construct: expressed in transfected cells; host or cells: HEK-293T/17 (transient, FuGENE 6)
Assay: HEK assay (whole-cell patch clamp, transiently transfected HEK-293T/17 cells, pulses P1 and P5)
Assay type: cell-based
Conditions: holding potential −100 mV
Description: HEK-293T/17 cells were transiently transfected in a similar manner as described in FuGENE 6 Package Insert Version 7, April 2002, Roche Applied Science, Indianapolis, Ind. The cells were plated at 2.5×10^5 cells in 2 mL in a 6-well plate, incubated for one night, and achieved a ˜30-40% confluence. In a small sterile tube, sufficient serum-free medium was added as diluent for FuGENE Transfection Reagent (Roche Applied Science, Indianapolis, Ind.) to a total volume of 100 μL. To this medium was added 3 μL of FuGENE 6 Reagent. The mixture was tapped gently to mix. To the prediluted FuGENE 6 Reagent was added 2 μg of DNA solution (0.8-2.0 μg/μL). The DNA/Fugene 6 mixture was gently pipeted to mix the contents and incubated for about 15 minutes at room temperature. The complex mixture was then added to the HEK-293T/17 cells, distributed around the well, and swirled to ensure even dispersal. The cells were returned to the incubator for 24 hours. The transfected cells were then replated at density 2.5×10^5 in a 35 mm dish with 5 glass coverslips and grew in low serum (1%) media for 24 hours. Coverslips with isolated cells were then transferred into a chamber, and calcium channel (e.g., L-type, N-type, etc.) current or other currents for counter screening were recorded from the transiently transfected HEK-293T/17 cells.
The whole-cell voltage clamp configuration of the patch clamp technique was employed to evaluate voltage-dependent calcium currents essentially as described by Thompson and Wong (1991), J. Physiol., 439: 671-689, the entire disclosure of which is herein incorporated by reference. To record calcium channel (e.g., L-type, N-type, etc.) currents for evaluation of inhibitory potency of compounds (steady-state concentration-response analysis), five pulses of 20-30 ms voltage steps to about +10 mV (the peak of the current voltage relationship) were delivered at five Hz every 30 second from a holding potential at −100 mV. In order to obtain an estimate of the degree of use-dependent block of the test compounds, IC50 values were determined at the first and fifth pulse of the train (P1 and P5, respectively, in Table 2). Compound evaluations were carried out essentially as described by Sah D. W. and Bean B. P. (1994), Mol. Pharmacol., 45:84-92, the entire disclosure of which is herein incorporated by reference.

[1] = fifth pulse (P5) of 5 Hz train, read-out: HEK Cav2.2 P5 IC50
[2] = first pulse (P1) of 5 Hz train, read-out: HEK Cav2.2 P1 IC50

T1 sequence (Q00975 whole entry): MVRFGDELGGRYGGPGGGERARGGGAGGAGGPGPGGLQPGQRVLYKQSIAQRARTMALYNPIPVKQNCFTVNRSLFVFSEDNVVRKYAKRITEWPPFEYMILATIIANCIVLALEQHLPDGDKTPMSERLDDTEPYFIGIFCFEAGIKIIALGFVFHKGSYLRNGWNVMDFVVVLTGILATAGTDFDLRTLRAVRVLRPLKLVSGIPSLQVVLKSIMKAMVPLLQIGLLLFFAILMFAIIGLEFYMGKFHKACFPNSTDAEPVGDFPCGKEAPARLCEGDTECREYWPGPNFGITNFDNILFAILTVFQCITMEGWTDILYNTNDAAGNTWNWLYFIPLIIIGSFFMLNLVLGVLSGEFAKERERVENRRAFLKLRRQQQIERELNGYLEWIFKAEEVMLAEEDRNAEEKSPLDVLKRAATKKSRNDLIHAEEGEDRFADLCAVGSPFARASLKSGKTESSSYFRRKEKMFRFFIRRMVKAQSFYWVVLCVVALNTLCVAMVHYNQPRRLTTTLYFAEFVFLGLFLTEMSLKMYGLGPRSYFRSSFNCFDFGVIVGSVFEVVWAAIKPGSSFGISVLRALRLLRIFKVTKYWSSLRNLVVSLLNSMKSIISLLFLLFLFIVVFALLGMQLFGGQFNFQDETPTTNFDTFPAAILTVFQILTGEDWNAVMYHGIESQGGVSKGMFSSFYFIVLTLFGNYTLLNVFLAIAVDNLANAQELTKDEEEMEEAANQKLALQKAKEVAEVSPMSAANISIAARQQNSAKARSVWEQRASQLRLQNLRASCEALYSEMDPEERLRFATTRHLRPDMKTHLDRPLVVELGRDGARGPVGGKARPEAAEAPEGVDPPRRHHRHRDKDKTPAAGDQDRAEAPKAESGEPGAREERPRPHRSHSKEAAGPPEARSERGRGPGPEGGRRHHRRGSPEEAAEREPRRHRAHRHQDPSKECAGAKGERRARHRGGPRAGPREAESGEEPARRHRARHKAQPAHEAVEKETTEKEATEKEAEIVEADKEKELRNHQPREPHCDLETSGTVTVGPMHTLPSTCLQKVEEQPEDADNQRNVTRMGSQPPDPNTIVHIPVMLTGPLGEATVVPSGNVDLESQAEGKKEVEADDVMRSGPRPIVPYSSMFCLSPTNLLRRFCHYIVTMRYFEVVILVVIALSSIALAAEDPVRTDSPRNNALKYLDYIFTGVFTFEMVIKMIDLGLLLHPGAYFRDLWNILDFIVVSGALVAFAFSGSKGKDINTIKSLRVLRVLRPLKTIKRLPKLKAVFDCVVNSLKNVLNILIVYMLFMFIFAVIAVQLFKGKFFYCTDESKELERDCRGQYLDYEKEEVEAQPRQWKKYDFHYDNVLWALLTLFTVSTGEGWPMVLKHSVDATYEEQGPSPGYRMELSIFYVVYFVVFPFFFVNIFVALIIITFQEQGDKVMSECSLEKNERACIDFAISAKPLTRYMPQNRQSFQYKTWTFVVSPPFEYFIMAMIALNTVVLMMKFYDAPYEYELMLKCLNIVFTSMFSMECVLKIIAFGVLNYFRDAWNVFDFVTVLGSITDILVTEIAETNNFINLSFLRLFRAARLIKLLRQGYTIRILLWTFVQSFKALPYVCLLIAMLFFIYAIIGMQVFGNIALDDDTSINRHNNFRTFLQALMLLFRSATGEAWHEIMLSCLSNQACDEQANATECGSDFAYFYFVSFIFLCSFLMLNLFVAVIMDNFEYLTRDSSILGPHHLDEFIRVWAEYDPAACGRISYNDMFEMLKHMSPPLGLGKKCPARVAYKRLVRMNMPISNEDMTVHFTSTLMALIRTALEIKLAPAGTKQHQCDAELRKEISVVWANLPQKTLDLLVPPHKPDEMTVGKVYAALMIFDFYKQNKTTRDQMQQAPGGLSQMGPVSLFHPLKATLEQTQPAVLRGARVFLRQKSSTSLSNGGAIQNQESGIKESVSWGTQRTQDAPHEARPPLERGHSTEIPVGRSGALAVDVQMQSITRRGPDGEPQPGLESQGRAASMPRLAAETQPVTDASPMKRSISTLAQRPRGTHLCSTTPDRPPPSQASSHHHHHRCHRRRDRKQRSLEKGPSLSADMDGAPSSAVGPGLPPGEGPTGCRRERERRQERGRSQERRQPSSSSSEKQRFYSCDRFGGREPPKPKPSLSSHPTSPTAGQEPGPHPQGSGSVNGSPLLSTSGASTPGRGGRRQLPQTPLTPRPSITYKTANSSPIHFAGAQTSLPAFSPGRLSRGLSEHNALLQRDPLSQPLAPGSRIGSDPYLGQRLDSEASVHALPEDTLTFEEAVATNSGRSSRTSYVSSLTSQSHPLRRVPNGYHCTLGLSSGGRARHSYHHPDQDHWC
T1 sequence (P54284 whole entry partner): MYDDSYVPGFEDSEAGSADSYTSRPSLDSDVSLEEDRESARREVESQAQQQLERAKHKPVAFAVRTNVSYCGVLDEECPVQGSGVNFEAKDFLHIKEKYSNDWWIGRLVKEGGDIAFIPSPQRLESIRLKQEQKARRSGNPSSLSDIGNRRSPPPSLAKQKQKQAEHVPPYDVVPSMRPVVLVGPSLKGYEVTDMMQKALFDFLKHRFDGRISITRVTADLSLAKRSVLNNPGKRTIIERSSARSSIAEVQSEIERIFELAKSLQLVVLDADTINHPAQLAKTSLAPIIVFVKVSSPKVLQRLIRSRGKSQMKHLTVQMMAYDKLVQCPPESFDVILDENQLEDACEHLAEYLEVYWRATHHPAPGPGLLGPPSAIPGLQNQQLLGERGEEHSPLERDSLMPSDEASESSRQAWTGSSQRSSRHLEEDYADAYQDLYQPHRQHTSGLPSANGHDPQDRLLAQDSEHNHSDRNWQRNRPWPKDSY
T1 sequence (P54289 25-946 partner limits assumed): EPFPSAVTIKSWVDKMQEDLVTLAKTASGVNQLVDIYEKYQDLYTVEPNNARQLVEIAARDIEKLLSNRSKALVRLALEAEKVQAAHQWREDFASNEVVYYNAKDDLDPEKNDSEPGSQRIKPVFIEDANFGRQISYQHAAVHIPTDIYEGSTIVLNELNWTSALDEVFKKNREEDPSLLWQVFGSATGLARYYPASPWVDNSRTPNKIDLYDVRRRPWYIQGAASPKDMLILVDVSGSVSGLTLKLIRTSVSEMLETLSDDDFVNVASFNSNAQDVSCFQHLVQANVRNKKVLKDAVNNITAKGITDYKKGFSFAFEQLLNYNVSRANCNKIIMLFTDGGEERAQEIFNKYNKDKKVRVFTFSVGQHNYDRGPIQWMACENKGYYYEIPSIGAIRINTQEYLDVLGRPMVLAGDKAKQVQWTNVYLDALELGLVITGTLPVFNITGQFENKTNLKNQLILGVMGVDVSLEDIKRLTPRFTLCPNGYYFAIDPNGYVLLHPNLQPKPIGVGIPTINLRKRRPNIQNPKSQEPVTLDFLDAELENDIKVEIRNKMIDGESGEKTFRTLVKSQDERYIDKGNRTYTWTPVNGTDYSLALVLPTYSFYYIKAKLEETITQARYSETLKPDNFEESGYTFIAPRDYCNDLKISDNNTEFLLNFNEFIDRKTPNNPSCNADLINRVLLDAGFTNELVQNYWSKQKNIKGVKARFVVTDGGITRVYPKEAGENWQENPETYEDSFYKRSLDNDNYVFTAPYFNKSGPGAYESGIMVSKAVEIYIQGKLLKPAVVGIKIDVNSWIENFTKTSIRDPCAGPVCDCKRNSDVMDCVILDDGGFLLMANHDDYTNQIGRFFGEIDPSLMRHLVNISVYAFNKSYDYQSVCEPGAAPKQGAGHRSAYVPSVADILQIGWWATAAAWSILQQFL
T1 sequence (P54289 947-1103 partner limits assumed): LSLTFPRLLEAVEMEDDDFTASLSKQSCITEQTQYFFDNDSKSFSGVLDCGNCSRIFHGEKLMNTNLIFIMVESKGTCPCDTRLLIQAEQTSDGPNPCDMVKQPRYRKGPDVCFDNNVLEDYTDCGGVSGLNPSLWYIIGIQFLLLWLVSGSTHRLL

| Compound | IC50 [1] | IC50 [2] |
| --- | --- | --- |
| CC(C)(C)C(=O)N(Cc1ccc(N2CC[C@@H](Oc3ccccn3)C2)nc1)c1ccc(F)cc1 [Compound 55, N-(4-Fluorophenyl)-2,2-dimethyl-N-{6-[3-(pyridin-2-yloxy)-pyrroldiin-1-yl]-pyridin-3-ylmethyl}-propionamide] | 0.6 µM | 1.7 µM |
| CN(Cc1ccco1)c1ccc(CN(C(=O)C(C)(C)C)c2ccc(F)cc2)cn1 [Compound 66, N-(4-Fluorophenyl)-N-[6-(furan-2-ylmethyl-methyl-amino)-pyridin-3-ylmethyl]-2,2-dimethyl-propionamide] | 1.1 µM | 3.5 µM |
| CCN(c1ccc(CN(C(=O)C(C)(C)C)c2ccc(N(C)C)cc2)cn1)C1CC1 [Compound 100, N-[6-(Cycloproyl(ethyl)amino)-pyridin-3-ylmethyl]-N-(4-dimethylamino-phenyl)-2,2-dimethyl-propionamide] | 4.3 µM | 8 µM |
| CCN(CC)c1ccc(CN(C(=O)C(C)(C)n2cc(Cc3ccccc3)nn2)c2ccc(F)cc2)cn1 [Compound 63, 2-(4-Benzyl-[1,2,3]triazol-1-yl)-N-(6-diethylamino-pyridin-3-ylmethyl)-N-(4-fluorophenyl)-isobutyramide] | 0.7 µM | 2.7 µM |
| CC(C)(C)C(=O)N(Cc1ccc(NC2CC2)nc1)c1ccc(F)cc1 [Compound 78, N-(6-Cyclopropylamino-pyridin-3-ylmethyl)-N-(4-fluorophenyl)-2,2-dimethyl-propionamide] | 7.2 µM | 14.2 µM |
| COc1ccc(N(C)c2nc(CN(C(=O)C(C)(C)C)c3ccc(F)cc3)cs2)cc1 [Compound 80, N-(4-Fluorophenyl)-N-{2-[(4-methoxy-phenyl)-methyl-amino]-thiazol-4-ylmethyl}-2,2-dimethyl-propionamide] | 0.6 µM | 2.4 µM |
| CN(CCOCc1cccnc1)c1ccc(CN(C(=O)C(C)(C)C)c2ccc(F)cc2)cn1 [Compound 47, N-(4-Fluorophenyl)-2,2-dimethyl-N-(6-{methyl-[2-(pyridin-3-ylmethoxy)-ethyl]-amino}-pyridin-3-ylmethyl)-propionamide] | 1.6 µM | 9.5 µM |
| CN(c1ccc(F)cc1)c1nc(CN(C(=O)C2CCCN2C)c2ccc(F)cc2)cs1 (stereo not drawn) [Compound 114, 1-Methyl-pyrrolidine-2-carboxylic acid (4-fluroophenyl)-{2-[(4-fluorophenyl)-methyl-amino]-thiazol-4-ylmethyl]-amide] | 2.1 µM | 4.8 µM |

Other lines, results leading:

| IC50 [1] | IC50 [2] | Compound |
| --- | --- | --- |
| 8.4 µM | – | CC(C)(C)OC(=O)N(Cc1csc(-c2ccncc2)n1)c1ccc(F)cc1 [Compound 101, (4-Fluorophenyl)-(2-pyridin-4-yl-thiazol-4-ylmethyl)-carabamic acid tert-butyl ester] |
| 1.5 µM | 6.2 µM | CCN(c1cccc(CN(C(=O)C(C)(C)C)c2ccc(F)cc2)c1)C1CC1 [Compound 6, N-(3-(Cyclopropyl(ethyl)amino)-benzyl)-N-(4-fluorophenyl)-2,2-dimethyl-propionamide hydrochloride] |
| 2.8 µM | 6 µM | CNC1CCN(c2ccc(CN(C(=O)C(C)(C)C)c3ccc(F)cc3)cn2)C1 (stereo not drawn) [Compound 56, N-(4-Fluorophenyl)-2,2-dimethyl-N-[6-(3-methylamino-pyrrolidin-1-yl)-pyridin-3-ylmethyl]-propionamide] |
| 6.3 µM | 17.1 µM | CCN(CC)C1CCN(c2ccc(CN(C(=O)C(C)(C)C)c3ccc(F)cc3)cn2)C1 (stereo not drawn) [Compound 52, N-[6-(3-Diethylamino-pyrrolidin-1-yl)-pyridin-3-ylmethyl]-N-(4-fluorophenyl)-2,2-dimethyl-propionamide] |
| 9.6 µM | – | CN1CCN(c2ncc(CN(C(=O)OC(C)(C)C)c3ccc(F)cc3)s2)CC1 [Compound 102, (4-Fluorophenyl)-[2-(4-methyl-piperazin-1-yl)-thiazol-5-ylmethyl]-carbamic acid tert-butyl ester] |
